System: transient cerebral focal ischemia (left middle cerebral artery occlusion)
Conditions: rat, in vivo

In the case of `C[C@]12N[C@H](Cc3ccccc31)c1ccccc12` [MK801, dizocilpine, reference compound], the “infarct volume relative to saline-treated control” value is reported as 61.1%±8.6% and the “reduction of focal ischemia / infarct size (summary statement)” value is reported as 40%.

— US7939064B2 (priority 2006, dated 2011)
